This is an account of results in US9718823B2, “2, 6-Di-nitrogen-containing substituted purine derivative, and preparation method, pharmaceutical composition and use thereof” (Zhejiang Medicine Co., Ltd. Xinchang Pharmaceutical Factory, priority 2013, dated 2017).

Test [1] concerns the target T1, PI3Kδ (Homo sapiens, UniProt O00329).
T1 construct: purchased Millipore 14-604
The test is described as follows: Inhibitory activity to PI3K δ, PI 3-Kinase (human) HTRF Assay kit. It is filed as biochemical. As to conditions: for inhibition at 1 µM / inhibition at 10 µM: read-out: Inhibition rate % to PI3Kδ. A digest of the protocol: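 Inhibition of human PI3Kδ was assessed with the Millipore PI 3-Kinase (human) HTRF Assay kit. PI3Kδ was screened at 2 ng/well, diluted in 2×PIP2 operating fluid. Reactions were 20 μL and contained 100 μM ATP. Stop solution was Stop A and Stop B mixed 3:1. Detection solution was DM C, DM A and DM B mixed 18:1:1. Compounds were prepared from DMSO stocks, and percent inhibition was reported.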
(TR-FRET usually uses a lanthanide donor and a delayed reading to cut background.)

The target of test [2] is T2, PI3 K γ (Homo sapiens, UniProt P48736).
T2 construct: purchased Biology, Medicilon
The test is described as follows: Inhibitory activity to PI3K γ, PI 3-Kinase (human) HTRF Assay kit. It is filed as biochemical. To be noted: for inhibition at 1 µM / inhibition at 10 µM: read-out: Inhibition rate % to PI3 K γ. The essentials:
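HTRF kinase assay with PI3Kγ at 80 ng/well, 10 μM PIP2 and 100 μM ATP (both final) in DTT-containing reaction buffer, 1% DMSO. Preliminary screen at 10 μM and 1 μM compound, followed by IC50 determination for selected compounds.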

In test [3] the target is T3, PDGFR β enzyme (Homo sapiens, UniProt P09619).
T3 construct: purchased Invitrogen P3082
The test is described as follows: Inhibitory activity to PDGFR β enzyme, HTRF kinEASE TK kit. The test is classed as biochemical. As to conditions: for inhibition at 1 µM / inhibition at 10 µM: read-out: Inhibition rate % (PDGFR β). A digest of the protocol: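 Recombinant human PDGFRβ phosphorylating TK-substrate in kinase buffer containing MgCl2, MnCl2, DTT and SEB, with ATP. Phosphorylation detected by HTRF using TK-Ab-Cryptate and Sa-XL665.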

Test [4] concerns PC-3 cell Akt (Ser473) phosphorylation. The test is described as follows: Inhibition of phosphorylation level of PC-3 cell Akt (Ser473), Cisbio HTRF phospho Akt (Ser473) cell-based assay. On the set-up: species or system human. As to conditions: Homo sapiens, PC-3, PC-3 cells, hEGF 100 ng/ml stimulation; 1st and 2nd test where printed. As for the experimental part:
The inhibitory activity of the compounds of present invention to the phosphorylation level of PC-3 cell Akt (Ser473) is studied by using Cisbio HTRF phospho Akt (Ser473) cell-based assay test kit.
Cell strain: PC-3 prostate cancer cells line (cell bank of Chinese Academy of Sciences) is cultured by using culture medium (F12K+10% FBS).
hEGF is prepared as stock solution of 100 ug/ml with 10 mM acetic acid, and the stock solution is diluted to 200 ng/ml with serum-free medium, added 50 ul to each well to be stimulated.
b) Preparation of Complete Lysate • 4×Lysis Buffer is diluted 4 times with ddH2O to prepare 1×Lysis Buffer. • 100×Blocking Reagent is diluted 100 times with 1×Lysis Buffer.
c) Preparation of Detection Liquid • 20×Anti-Phospho-Akt is diluted 20 times with Detection Buffer. • 20×Anti-Akt is diluted 20 times with Detection Buffer.
The compounds are diluted with DMSO, and the working concentration of compounds is 100 times of detection concentration.
Cells in logarithmic growth phase are collected, counted, and resuspended with complete culture medium;
The cell concentration is adjusted to appropriate concentration, and cell suspension is inoculated into 96 well plates at 50 μl per well;
Cells are incubated for more than 4 h in the 5% CO2 incubator at temperature of 37° C., relative humidity of 100%;
Cell plate is removed from the incubator. The cell suspension is aspirated gently, and 50 ul serum-free F12K medium is quickly added, then the cell plate is placed into the incubator to culture overnight.
The compounds are diluted in a linear gradient with DMSO.
0.5 ul compounds is added into the test well, mixed on oscillators, and incubated at room temperature for 2 hours.
Proportioned hEGF solution is added to test well at 50 μl per well, and the final concentration is 100 ng/ml. serum-free medium is added into The negative control well at 50 μl per well.
The solution is mixed on oscillator and incubated at room temperature for 2 hours.
The liquid in 96 well plates is aspirated by multichannel pipette or the supernatant is discarded gently. The proportioned complete lysate is added quickly at 50 μl per well.
The solution is mixed on oscillator and lysed at room temperature for 30 min.
16 μl cell lysate is transferred from the 96 well plates to white low volume 384 well plates, and the proportioned two pairs of detection antibody are added. The solution is mixed on oscillator, and incubated at room temperature for 4 hours to detect the readings.

Test [5] addresses T4, PI3K α (Homo sapiens, UniProt P42336).
T4 construct: purchased Millipore 14-602
The test is described as follows: Inhibitory activity to PI3K α, PI 3-Kinase (human) HTRF Assay kit. The test is classed as biochemical. As to conditions: read-out: % Inhibition Rate to PI3K α. The source says: Study on the inhibitory activity of the compounds of present invention to PI 3κα, PI3κδ and PI3κγ. Two or three concentrations of the compounds are selected to preliminary screening to calculate respectively the activity inhibition rate of the compounds of corresponding concentrations to enzyme, then the compounds with better activity are selected by preliminary screening for IC50 test.
PI 3-Kinase (human) HTRF™ Assay kit (Cat.33-017, Millipore)
PI 3k α (Cat.14-602, Millipore)
4× Reaction Buffer (Cat.33-002, Millipore) is diluted with ddH2O to 1.33×, and 1M DTT is added to make the final concentration as 6.67 mM. For example, 10 μL DTT is added into 500 μL 4× Reaction Buffer, and water is added to 1.5 mL.
The Test compounds are dissolved with DMSO to 1 mM as storage liquid. 2 μL of each of storage liquid is added into 48 μL ddH2O, to obtain the 40 μM compounds solution containing 4% DMSO. After mixing, 3 μL of each of the solution is added into 27 μL 4% DMSO (in ddH2O) to obtain the 4 μM compounds solution. 5 μL of each dilute solution is added into 384-well plates, then the final concentration of the compounds in the 20 μL final kinase reaction system is 10 μM and 1 μM respectively contained 1% DMSO. The dilution methods of compounds are similar to the preliminary screening in IC50 test.
2×PIP2 working fluid is prepared with 1.33× reaction buffer to the final concentration of 20 μM.
The screening concentration of PI 3k α kinase: 8 ng/well,
Kinase is diluted with 2×PIP2 operating fluid, the concentration of kinase operating fluid is 2 times of screening concentration.
10 mM ATP is diluted with 1.33× reaction buffer to 400 μM. The concentration of ATP is 100 μM in 20 μL kinase reaction system.
Stop A and Stop B are mixed according to the proportion of 3:1, and are placed for 2 hours at room temperature to obtain the stop solution available.
DM C, DM A and DM B are mixed according to the proportion of 18:1:1, and are placed for 2 hours at room temperature to obtain the detection solution available.

T2 sequence (P48736 whole entry): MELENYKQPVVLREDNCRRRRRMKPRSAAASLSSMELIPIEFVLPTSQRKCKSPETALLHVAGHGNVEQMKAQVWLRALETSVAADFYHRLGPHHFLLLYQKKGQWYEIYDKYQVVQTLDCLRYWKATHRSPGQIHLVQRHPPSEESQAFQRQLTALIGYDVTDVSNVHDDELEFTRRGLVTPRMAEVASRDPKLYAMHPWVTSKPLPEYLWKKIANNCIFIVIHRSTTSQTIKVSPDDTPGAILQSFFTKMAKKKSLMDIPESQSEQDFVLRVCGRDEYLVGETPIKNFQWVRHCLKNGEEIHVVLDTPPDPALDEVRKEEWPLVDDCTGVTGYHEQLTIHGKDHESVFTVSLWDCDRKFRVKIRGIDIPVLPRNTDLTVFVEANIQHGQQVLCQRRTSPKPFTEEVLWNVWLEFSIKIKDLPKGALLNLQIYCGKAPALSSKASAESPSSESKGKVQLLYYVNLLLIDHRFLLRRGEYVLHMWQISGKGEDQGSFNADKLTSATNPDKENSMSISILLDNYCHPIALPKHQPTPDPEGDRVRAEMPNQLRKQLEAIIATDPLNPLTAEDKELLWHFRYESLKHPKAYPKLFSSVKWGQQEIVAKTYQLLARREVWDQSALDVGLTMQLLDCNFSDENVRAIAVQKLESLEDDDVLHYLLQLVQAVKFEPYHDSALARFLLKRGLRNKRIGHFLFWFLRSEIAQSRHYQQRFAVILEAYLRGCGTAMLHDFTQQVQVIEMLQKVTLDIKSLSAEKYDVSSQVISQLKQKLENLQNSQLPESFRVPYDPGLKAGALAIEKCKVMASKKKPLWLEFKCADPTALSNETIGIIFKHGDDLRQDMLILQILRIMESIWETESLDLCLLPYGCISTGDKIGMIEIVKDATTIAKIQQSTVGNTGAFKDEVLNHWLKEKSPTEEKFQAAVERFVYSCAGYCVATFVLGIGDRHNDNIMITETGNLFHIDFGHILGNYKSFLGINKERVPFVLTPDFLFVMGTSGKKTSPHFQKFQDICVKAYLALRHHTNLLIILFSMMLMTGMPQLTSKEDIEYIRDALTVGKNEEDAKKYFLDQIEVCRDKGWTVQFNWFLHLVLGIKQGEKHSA
T3 sequence (P09619 33-1106): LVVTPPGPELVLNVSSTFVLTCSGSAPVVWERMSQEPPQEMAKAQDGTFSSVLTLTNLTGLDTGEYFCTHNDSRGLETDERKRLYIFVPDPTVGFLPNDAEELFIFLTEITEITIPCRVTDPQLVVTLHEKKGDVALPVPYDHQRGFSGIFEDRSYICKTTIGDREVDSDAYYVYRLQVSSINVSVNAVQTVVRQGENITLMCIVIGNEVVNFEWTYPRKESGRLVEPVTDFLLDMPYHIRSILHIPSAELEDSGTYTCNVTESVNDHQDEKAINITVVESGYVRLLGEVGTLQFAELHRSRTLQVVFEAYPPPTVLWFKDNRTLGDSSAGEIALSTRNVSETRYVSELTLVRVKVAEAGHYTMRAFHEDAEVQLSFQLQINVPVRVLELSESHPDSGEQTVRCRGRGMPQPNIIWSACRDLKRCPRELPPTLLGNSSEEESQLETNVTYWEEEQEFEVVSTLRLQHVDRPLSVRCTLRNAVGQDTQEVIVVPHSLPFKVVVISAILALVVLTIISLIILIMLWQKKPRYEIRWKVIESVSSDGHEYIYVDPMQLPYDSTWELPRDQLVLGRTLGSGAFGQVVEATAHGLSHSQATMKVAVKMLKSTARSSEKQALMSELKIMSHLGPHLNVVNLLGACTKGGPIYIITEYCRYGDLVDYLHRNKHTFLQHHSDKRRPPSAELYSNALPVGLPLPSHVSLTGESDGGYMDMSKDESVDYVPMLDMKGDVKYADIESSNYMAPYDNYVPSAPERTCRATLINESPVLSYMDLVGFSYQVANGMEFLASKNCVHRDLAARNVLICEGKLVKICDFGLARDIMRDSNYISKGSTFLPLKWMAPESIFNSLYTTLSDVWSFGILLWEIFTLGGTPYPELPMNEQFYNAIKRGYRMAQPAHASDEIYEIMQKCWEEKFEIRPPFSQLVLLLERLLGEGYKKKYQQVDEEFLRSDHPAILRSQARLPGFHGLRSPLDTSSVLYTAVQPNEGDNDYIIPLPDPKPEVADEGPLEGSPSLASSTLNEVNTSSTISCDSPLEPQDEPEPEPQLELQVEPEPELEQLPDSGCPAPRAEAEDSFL
T1 sequence (O00329 whole entry): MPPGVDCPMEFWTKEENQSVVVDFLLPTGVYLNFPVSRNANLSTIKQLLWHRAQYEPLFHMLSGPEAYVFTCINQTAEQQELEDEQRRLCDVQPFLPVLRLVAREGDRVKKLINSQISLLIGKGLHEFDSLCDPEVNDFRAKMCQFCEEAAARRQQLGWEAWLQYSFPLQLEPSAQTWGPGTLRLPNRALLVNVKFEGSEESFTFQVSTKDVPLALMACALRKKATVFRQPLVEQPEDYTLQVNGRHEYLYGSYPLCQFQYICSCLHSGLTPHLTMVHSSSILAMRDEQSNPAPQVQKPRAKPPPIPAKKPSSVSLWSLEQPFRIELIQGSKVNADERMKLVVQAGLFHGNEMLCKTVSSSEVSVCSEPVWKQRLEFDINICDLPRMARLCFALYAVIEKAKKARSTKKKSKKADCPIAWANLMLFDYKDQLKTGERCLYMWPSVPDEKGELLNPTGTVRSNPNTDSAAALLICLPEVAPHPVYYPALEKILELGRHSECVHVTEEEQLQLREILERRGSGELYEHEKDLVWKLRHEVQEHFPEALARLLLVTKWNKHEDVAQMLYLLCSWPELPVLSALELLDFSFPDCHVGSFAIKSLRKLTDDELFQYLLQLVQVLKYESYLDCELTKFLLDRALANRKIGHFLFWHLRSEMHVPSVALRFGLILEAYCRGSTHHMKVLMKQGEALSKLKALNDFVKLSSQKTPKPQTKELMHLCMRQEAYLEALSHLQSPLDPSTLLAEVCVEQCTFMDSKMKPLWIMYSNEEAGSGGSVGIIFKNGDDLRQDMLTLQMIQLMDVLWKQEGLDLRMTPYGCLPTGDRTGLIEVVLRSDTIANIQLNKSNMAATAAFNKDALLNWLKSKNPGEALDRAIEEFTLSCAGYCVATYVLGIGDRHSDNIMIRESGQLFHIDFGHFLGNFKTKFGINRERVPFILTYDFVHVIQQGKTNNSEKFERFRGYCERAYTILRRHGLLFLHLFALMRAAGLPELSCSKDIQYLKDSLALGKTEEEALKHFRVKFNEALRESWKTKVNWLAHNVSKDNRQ
T1 sequence (P27986 whole entry partner): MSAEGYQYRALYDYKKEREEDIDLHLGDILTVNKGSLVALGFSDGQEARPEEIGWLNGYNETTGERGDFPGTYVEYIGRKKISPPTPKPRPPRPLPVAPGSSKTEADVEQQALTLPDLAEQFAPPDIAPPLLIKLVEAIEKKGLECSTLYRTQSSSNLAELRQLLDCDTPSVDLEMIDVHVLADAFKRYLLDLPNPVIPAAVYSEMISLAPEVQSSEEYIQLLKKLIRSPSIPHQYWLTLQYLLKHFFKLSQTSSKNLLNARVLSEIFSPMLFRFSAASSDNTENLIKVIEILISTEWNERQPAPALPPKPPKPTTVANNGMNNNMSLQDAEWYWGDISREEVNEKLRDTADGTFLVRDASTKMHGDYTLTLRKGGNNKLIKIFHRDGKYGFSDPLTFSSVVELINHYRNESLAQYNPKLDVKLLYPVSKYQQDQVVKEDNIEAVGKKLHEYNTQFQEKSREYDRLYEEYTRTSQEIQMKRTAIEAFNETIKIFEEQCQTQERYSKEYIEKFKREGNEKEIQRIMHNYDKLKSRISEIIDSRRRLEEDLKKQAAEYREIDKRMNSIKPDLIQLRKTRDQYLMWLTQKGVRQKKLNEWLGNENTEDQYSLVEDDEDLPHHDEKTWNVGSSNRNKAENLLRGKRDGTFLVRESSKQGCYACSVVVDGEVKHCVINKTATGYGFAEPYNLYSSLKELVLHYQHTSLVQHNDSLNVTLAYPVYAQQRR
T4 sequence (P42336 whole entry): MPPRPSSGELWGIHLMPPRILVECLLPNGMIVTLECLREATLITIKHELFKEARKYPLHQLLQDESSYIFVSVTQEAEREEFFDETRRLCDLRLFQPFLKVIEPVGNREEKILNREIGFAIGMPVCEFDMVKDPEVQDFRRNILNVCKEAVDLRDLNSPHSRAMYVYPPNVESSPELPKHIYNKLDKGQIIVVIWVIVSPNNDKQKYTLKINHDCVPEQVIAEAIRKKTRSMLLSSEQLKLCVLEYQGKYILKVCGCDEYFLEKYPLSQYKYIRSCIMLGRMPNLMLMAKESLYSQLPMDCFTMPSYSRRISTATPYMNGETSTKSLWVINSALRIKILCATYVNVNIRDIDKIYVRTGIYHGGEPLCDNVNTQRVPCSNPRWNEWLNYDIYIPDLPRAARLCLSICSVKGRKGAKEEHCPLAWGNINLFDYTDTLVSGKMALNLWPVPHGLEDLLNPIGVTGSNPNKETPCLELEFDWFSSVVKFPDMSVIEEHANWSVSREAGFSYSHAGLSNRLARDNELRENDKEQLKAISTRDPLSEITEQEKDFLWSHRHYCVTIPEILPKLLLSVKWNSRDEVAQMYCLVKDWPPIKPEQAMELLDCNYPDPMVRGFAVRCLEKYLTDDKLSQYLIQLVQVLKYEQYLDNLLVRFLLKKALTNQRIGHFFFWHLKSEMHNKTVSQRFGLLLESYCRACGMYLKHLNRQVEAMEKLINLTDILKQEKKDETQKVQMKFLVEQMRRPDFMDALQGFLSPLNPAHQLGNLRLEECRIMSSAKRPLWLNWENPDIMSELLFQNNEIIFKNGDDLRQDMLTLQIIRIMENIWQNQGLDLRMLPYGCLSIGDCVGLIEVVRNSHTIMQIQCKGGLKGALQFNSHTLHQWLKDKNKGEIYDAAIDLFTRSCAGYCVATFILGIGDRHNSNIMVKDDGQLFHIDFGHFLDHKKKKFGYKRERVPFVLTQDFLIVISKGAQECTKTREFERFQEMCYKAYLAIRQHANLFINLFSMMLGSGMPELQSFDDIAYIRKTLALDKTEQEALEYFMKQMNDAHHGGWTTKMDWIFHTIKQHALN
T4 sequence (P27986 whole entry partner): as the sequence (P27986 whole entry partner) above

What is called IC50 is the midpoint of a concentration-inhibition curve. Turning to `c1ccc(-c2ccnc3ccc(Nc4nc(NC5CC5)c5nc[nH]c5n4)cc23)cc1` [MED1007-31, N6-cyclopropyl-N2-(4-phenylquinoline-6-yl)-9H-purine-2,6 diamine], the “Inhibition rate % to PI3Kδ” value in test [1] (1 μM (Table 7), 1 µM) is given as 40.16%; in test [1] (10 μM (Table 7), 10 µM), 97.80%. Also, the results for the “Inhibition rate % to PI3 K γ” value in test [2] (1 μM) and in test [2] (10 μM) were 11.33% and 52.59%, respectively. Besides, the results for the “Inhibition rate % (PDGFR β)” value in test [3] (1 μM) and in test [3] (10 μM) were 13.84% and 26.16%, respectively. In addition, the IC50 in test [4] came to 112 nM.

One may read the inhibition as the drop in the measured response relative to a control, in per cent. On to `c1cnc2ccc(Nc3nc(OC4CCCC4)c4nc[nH]c4n3)cc2c1` [MED1007-35, N-(6-cyclopentyloxy-9H-purine-2-yl) quinoline-6-amine], for which the inhibition at 1 µM in test [1] (1 μM (Table 7)) came to 44.4%; in test [2] (1 μM) it was 19.2%; in test [3] (1 μM), 54.8%. Further, the inhibition at 10 µM in test [1] (10 μM (Table 7)) is 87.4%; in test [2] (10 μM) it was 53%; in test [3] (10 μM) it was 99%. This compound registered a half-maximal inhibitory concentration (IC50) in test [4] of 74.5 nM.

As for `COc1ccc(-c2ccnc3ccc(Nc4nc(NC5CC5)c5nc[nH]c5n4)cc23)cc1` [MED1007-63, N6-cyclopropyl-N2-(4-(4-methoxyphenyl)quinoline-6-yl)-9H-purine-2,6-diamine], the values for the inhibition at 1 µM in test [1] (1 μM (Table 7)), in test [2] (1 μM) and in test [3] (1 μM) were 37.5%, 0.96% and -0.31%, respectively. The inhibition at 10 µM in test [1] (10 μM (Table 7)) came out at 122%; in test [2] (10 μM), 14.7%; in test [3] (10 μM), 28%. Further, 62.2 nM corresponded to half-maximal inhibition in test [4] (IC50).

On to `CSc1cccc(-c2ccnc3ccc(Nc4nc(NC5CC5)c5nc[nH]c5n4)cc23)c1` [MED1007-88, N6-cyclopropyl-N2-(4-(3-(methylthio)phenyl)quinoline-6-yl)-9H-purine-2,6-diamine], for which the inhibition at 1 µM in test [1] (1 μM (Table 7)) was 31%; in test [5], 46.2%; in test [2] (1 μM), 7.02%; in test [3] (1 μM), -5.37%. Besides, the inhibition at 10 µM is 103% in test [1] (10 μM (Table 7)), 110% in test [5], 41.5% in test [2] (10 μM) and 2.89% in test [3] (10 μM).

`c1cnc2ccc(Nc3nc(OC4CCC4)c4nc[nH]c4n3)cc2c1` [MED1007-97]: the inhibition at 1 µM in test [1] (1 μM (Table 7)) is 72.3%; in test [5], 56.3%; in test [2] (1 μM), 74.7%; in test [3] (1 μM), 98.4%. Further, the inhibition at 10 µM in test [1] (10 μM (Table 7)) worked out at 88.5%; in test [5], 114%; in test [2] (10 μM), 77%; in test [3] (10 μM), 99.5%.

Take `c1ccc(-c2ccnc3ccc(Nc4nc(OC5CCC5)c5nc[nH]c5n4)cc23)cc1` [MED1007-98]: the inhibition at 1 µM in test [1] (1 μM (Table 7)) came to 71.1%; in test [5], 102%; in test [2] (1 μM) it was 32.8%; in test [3] (1 μM) it was 38.1%. Besides, the inhibition at 10 µM in test [1] (10 μM (Table 7)) is 105%; in test [5], 118%; in test [2] (10 μM) it was 105%; in test [3] (10 μM), 37.8%.

On to `c1ccc(-c2ccnc3ccc(Nc4nc(NCC5CCCC5)c5nc[nH]c5n4)cc23)cc1` [MED1007-99, N6-(cyclopentylmethyl)-N2-(4-phenylquinoline-6-yl)-9H-purine-2,6-diamine], for which the inhibition at 1 µM in test [1] (1 μM (Table 7)) was 7.67%; in test [5], 23.3%; in test [2] (1 μM) it was 4.68%; in test [3] (1 μM) it was 33.1%. Further, the inhibition at 10 µM worked out at 88.1% in test [1] (10 μM (Table 7)), 88.3% in test [5], 39.9% in test [2] (10 μM) and 9.88% in test [3] (10 μM).

In the case of `c1ccc(-c2ccnc3ccc(Nc4nc(N5CCCC5)c5nc[nH]c5n4)cc23)cc1` [MED1007-103, 4-phenyl-N-(6-(pyrrolidine-1-yl)-9H-purine-2-yl)quinoline-6-amine], the values for the inhibition at 1 µM in test [1] (1 μM (Table 7)) and in test [5] were 68% and 55.3%, respectively. Besides, the inhibition at 10 µM is 87.5% in test [1] (10 μM (Table 7)) and 82.2% in test [5]. The IC50 in test [4] came out at 276 nM.
